This is an account of results in US7041705B2, “Injectable aqueous dispersions of propofol” (Jagotec AG, priority 1998, dated 2006).

The subject of this series is human whole-blood (erythrocytes). The following applies: both. The procedure: In-vitro evaluation of the hemolytic influence of the preparations of this invention on human whole-blood was determined as a further guide to selecting formulations with a low tendancy to produce irritation around the site of injection. The hemolytic potential of the formulation on blood was evaluated by the assay of erythrocyte cytoplasmic marker enzyme, lactate dehydrogenase (LDH). Measurement of erythrocyte cytoplasmic marker enzyme. LDH, which escapes from the leaky or ruptured erythrocytes into tie plasma compartment of the blood, is one of the commonly used quantitative assays described in literature for evaluation of hemolytic potential of injectable formulations (Stenz and Bauer, 1996). The blood was obtained from male or female Caucasian human volunteers of 18 to 65 years age and stabilized with sodium heparin. The test formulation was mixed with an equal volume of human whole blood and incubated at 37° C. for about 1 hour. The mixture was then held at ambient temperature for 30 min. followed by centrifugation at 1500 rpm for 10 min. The level of LDH in the supernatant was determined by a standard procedure known to the scientists skilled in this art.

Where a name gives a salt, the structure may show the parent alone. Read-outs that look alike come from different tables or passages of the source.

Regarding `CCCCc1oc2ccccc2c1C(=O)c1cc(I)c(OCCN(CC)CC)c(I)c1` [Amiodarone hydrochloride], the LDH is 673 IU/L (1.8 mg/mL) and 8190 IU/L (50 mg/mL).
